According to US8278473B2, “Alpha, beta-unsaturated imidate compound and pesticidal composition containing the same” (Sumitomo Chemical Company, Limited, priority 2007, dated 2012):

test system: Haemaphysalis longicornis; assay: Test Example 10: Haemaphysalis longicornis, treated filter paper pouch; format: in vivo; details: 0.5 mg compound on filter paper 5×10 cm; non-blood sucking nymphal ticks; after 2 days
Procedure: In 1 mL of acetone, 0.5 mg of any one of the present compounds 1 to 48 was dissolved, and the solution was spread uniformly on one side of a filter paper (TOYO No. 2; 5×10 cm). After dried, the filter paper was folded into two, and the sides were clipped to make a pouch. Into the pouch, tested ticks (Haemaphysalis longicornis, non-blood sucking nymphal ticks, 10 ticks in a group) were placed. The pouch was clipped and sealed. After 2 days, the number of dead ticks was counted.

Row | Compound | death rate [%]
1 | COc1ccccc1OC=C(C)C(=Nc1ccc(C)c(C)c1)Oc1cccc(C)c1 [Compound 252, 3-methylphenyl N-(3,4-dimethylphenyl)-3-(2-methoxyphenyloxy)-2-methyl-2-propenimidate] | 100
2 | CC(=COc1ccc(C)cc1)C(=Nc1ccccc1)Oc1ccccc1C [Compound 194, 2-methylphenyl 2-methyl-3-(4-methylphenyloxy)-N-phenyl-2-propenimidate] | 100
3 | CCc1cccc(OC(=Nc2ccc(C)c(C)c2)C(C)=COc2ccc(OC)cc2)c1 [Compound 284, 3-ethylphenyl N-(3,4-dimethylphenyl)-3-(4-methoxyphenyloxy)-2-methyl-2-propenimidate] | 100
4 | CCc1cccc(OC(=Nc2ccc(OC)cc2)C(C)=COc2ccccc2OC)c1 [Compound 247, 3-ethylphenyl N-(4-methoxyphenyl)-3-(2-methoxyphenyloxy)-2-methyl-2-propenimidate] | 100
5 | COc1ccc(N=C(Oc2cc(C)cc(C)c2)C(C)=COc2ccc(OC)cc2)cc1 [Compound 281, 3,5-dimethylphenyl N-(4-methoxyphenyl)-3-(4-methoxyphenyloxy)-2-methyl-2-propenimidate] | 100
6 | COc1ccc(OC=C(C)C(=Nc2ccc(C)cc2)Oc2cccc(OC)c2)cc1 [Compound 273, 3-methoxyphenyl 3-(4-methoxyphenyloxy)-2-methyl-N-(4-methylphenyl)-2-propenimidate] | 100
7 | CC(=COc1cccc(C)c1)C(=Nc1ccc(C)cc1)Oc1ccccc1 [Compound 183, phenyl 2-methyl-N-(4-methylphenyl)-3-(3-methylphenyloxy)-2-propenimidate] | 100
8 | COc1ccc(OC=C(C)C(=Nc2ccc(C)cc2)Oc2cccc(C)c2)cc1 [Compound 270, 3-methylphenyl 3-(4-methoxyphenyloxy)-2-methyl-N-(4-methylphenyl)-2-propenimidate] | 100
9 | COc1ccc(N=C(Oc2cccc(OC)c2)C(C)=COc2ccc(OC)cc2)cc1 [Compound 279, 3-methoxyphenyl N-(4-methoxyphenyl)-3-(4-methoxyphenyloxy)-2-methyl-2-propenimidate] | 100
10 | CCCC(=COc1ccccc1)C(=Nc1ccccc1)Oc1ccccc1 [Compound 322, phenyl 3-phenoxy-N-phenyl-2-n-propyl-2-propenimidate] | 100
11 | CC(=COc1ccc(Oc2ccccc2)cc1)C(=Nc1ccccc1)Oc1ccccc1 [Compound 291, phenyl 2-methyl-3-(4-phenoxyphenyloxy)-N-phenyl-2-propenimidate] | 100
12 | CC(=COc1cccc(C)c1)C(=Nc1ccccc1)Oc1ccccc1 [Compound 175, phenyl 2-methyl-3-(3-methylphenyloxy)-N-phenyl-2-propenimidate] | 100
13 | CCc1cccc(OC(=Nc2ccc(C)cc2)C(C)=COc2ccccc2OC)c1 [Compound 241, 3-ethylphenyl 3-(2-methoxyphenyloxy)-2-methyl-N-(4-methylphenyl)-2-propenimidate] | 100
14 | COc1ccc(N=C(Oc2cccc(C)c2)C(C)=COc2ccccc2OC)cc1 [Compound 246, 3-methylphenyl N-(4-methoxyphenyl)-3-(2-methoxyphenyloxy)-2-methyl-2-propenimidate] | 100
15 | CC(=COc1ccc(C)cc1)C(=Nc1ccccc1)Oc1cccc(C(F)(F)F)c1 [Compound 206, 3-(trifluoromethyl)phenyl 2-methyl-3-(4-methylphenyloxy)-N-phenyl-2-propenimidate] | 100
16 | COc1ccccc1OC=C(C)C(=Nc1ccc(C)cc1)Oc1ccccc1 [Compound 239, phenyl 3-(2-methoxyphenyloxy)-2-methyl-N-(4-methylphenyl)-2-propenimidate] | 100
17 | CC(=COc1cccc(C)c1)C(=Nc1ccccc1)Oc1cccc(C)c1 [Compound 176, 3-methylphenyl 2-methyl-3-(3-methylphenyloxy)-N-phenyl-2-propenimidate] | 100
18 | CC(=COc1ccc(C)cc1)C(=Nc1ccc(C)cc1)Oc1ccc(F)cc1 [Compound 215, 4-fluorophenyl 2-methyl-N-(4-methylphenyl)-3-(4-methylphenyloxy)-2-propenimidate] | 100
19 | COc1cccc(OC(=Nc2ccccc2)C(C)=COc2ccccc2OC)c1 [Compound 236, 3-methoxyphenyl 3-(2-methoxyphenyloxy)-2-methyl-N-phenyl-2-propenimidate] | 100
20 | CC(=COc1ccc(C)cc1)C(=Nc1ccccc1)Oc1cccc(C)c1 [Compound 195, 3-methylphenyl 2-methyl-3-(4-methylphenyloxy)-N-phenyl-2-propenimidate] | 100
21 | CCc1cccc(OC(=Nc2ccc(C)cc2)C(C)=COc2ccc(OC)cc2)c1 [Compound 272, 3-ethylphenyl 3-(4-methoxyphenyloxy)-2-methyl-N-(4-methylphenyl)-2-propenimidate] | 100

Row | Compound | death rate [%]
22 | COc1cccc(OC=C(C)C(=Nc2ccccc2)Oc2ccccc2)c1 [Compound 257, phenyl 3-(3-methoxyphenyloxy)-2-methyl-N-phenyl-2-propenimidate] | 100
23 | CCOc1cccc(OC(=Nc2ccc(C)cc2)C(C)=COc2ccccc2OC)c1 [Compound 243, 3-ethoxyphenyl 3-(2-methoxyphenyloxy)-2-methyl-N-(4-methylphenyl)-2-propenimidate] | 100
24 | CC(=COc1ccc(Cl)cc1)C(=Nc1ccccc1)Oc1ccccc1 [Compound 231, phenyl 3-(4-chlorophenyloxy)-2-methyl-N-phenyl-2-propenimidate] | 100
25 | CCc1cccc(OC(=Nc2ccc(C)cc2)C(C)=COc2cccc(C)c2)c1 [Compound 185, 3-ethylphenyl 2-methyl-N-(4-methylphenyl)-3-(3-methylphenyloxy)-2-propenimidate] | 100
26 | CCOc1cccc(OC(=Nc2ccccc2)C(C)=COc2cccc(C)c2)c1 [Compound 179, 3-ethoxyphenyl 2-methyl-3-(3-methylphenyloxy)-N-phenyl-2-propenimidate] | 100
27 | COc1ccccc1OC=C(C)C(=Nc1ccc(C)cc1)Oc1cccc(C)c1 [Compound 240, 3-methylphenyl 3-(2-methoxyphenyloxy)-2-methyl-N-(4-methylphenyl)-2-propenimidate] | 100
28 | COc1cccc(OC(=Nc2ccc(C)cc2)C(C)=COc2ccccc2OC)c1 [Compound 242, 3-methoxyphenyl 3-(2-methoxyphenyloxy)-2-methyl-N-(4-methylphenyl)-2-propenimidate] | 100
29 | CCC(=COc1ccccc1)C(=Nc1ccccc1)Oc1ccccc1 [Compound 301, phenyl 2-ethyl-3-phenoxy-N-phenyl-2-propenimidate] | 100
30 | CCOc1cccc(OC(=Nc2ccc(C)cc2)C(C)=COc2cccc(C)c2)c1 [Compound 186, 3-ethoxyphenyl 2-methyl-N-(4-methylphenyl)-3-(3-methylphenyloxy)-2-propenimidate] | 100
31 | CC(=COc1cccc(C)c1)C(=Nc1ccccc1)Oc1cccc(C(C)C)c1 [Compound 178, 3-isopropylphenyl 2-methyl-3-(3-methylphenyloxy)-N-phenyl-2-propenimidate] | 100
32 | COc1ccc(N=C(Oc2ccccc2)C(C)=COc2cccc(C)c2)cc1 [Compound 188, phenyl N-(4-methoxyphenyl)-2-methyl-3-(3-methylphenyloxy)-2-propenimidate] | 100
33 | CC(=COc1ccc(C)cc1)C(=Nc1ccccc1)Oc1ccc(Cl)cc1 [Compound 202, 4-chlorophenyl 2-methyl-3-(4-methylphenyloxy)-N-phenyl-2-propenimidate] | 100
34 | COc1ccc(OC=C(C)C(=Nc2ccccc2)Oc2ccccc2)cc1 [Compound 262, phenyl 3-(4-methoxyphenyloxy)-2-methyl-N-phenyl-2-propenimidate] | 100
35 | CC(=COc1ccc(C)cc1)C(=Nc1ccccc1)Oc1ccc2ccccc2c1 [Compound 207, 2-naphthyl 2-methyl-3-(4-methylphenyloxy)-N-phenyl-2-propenimidate] | 100
36 | COc1ccccc1OC=C(C)C(=Nc1ccccc1)Oc1ccccc1 [Compound 232, phenyl 3-(2-methoxyphenyloxy)-2-methyl-N-phenyl-2-propenimidate] | 100
37 | CCC(=COc1ccccc1)C(=Nc1ccccc1)Sc1ccccc1 [Compound 300, phenyl 2-ethyl-3-phenoxy-N-phenyl-2-propenimidothioate] | 100
38 | COc1ccccc1OC=C(C)C(=Nc1ccc(C)cc1)Oc1cc(C)cc(C)c1 [Compound 244, 3,5-dimethylphenyl 3-(2-methoxyphenyloxy)-2-methyl-N-(4-methylphenyl)-2-propenimidate] | 100
39 | COc1ccc(OC(=Nc2ccc(C)cc2)C(C)=COc2ccc(C)cc2)cc1 [Compound 221, 4-methoxyphenyl 2-methyl-N-(4-methylphenyl)-3-(4-methylphenyloxy)-2-propenimidate] | 100
40 | CCc1cccc(OC(=Nc2ccccc2)C(C)=COc2ccccc2OC)c1 [Compound 234, 3-ethylphenyl 3-(2-methoxyphenyloxy)-2-methyl-N-phenyl-2-propenimidate] | 100
41 | COc1ccccc1OC=C(C)C(=Nc1ccccc1)Oc1cccc(C)c1 [Compound 233, 3-methylphenyl 3-(2-methoxyphenyloxy)-2-methyl-N-phenyl-2-propenimidate] | 100
42 | CC(=COc1ccc(C)cc1)C(=Nc1ccccc1)Oc1ccc(F)cc1 [Compound 199, 4-fluorophenyl 2-methyl-3-(4-methylphenyloxy)-N-phenyl-2-propenimidate] | 100
